According to patent publication US4443436A, “C-20-Modified macrolide derivatives of the macrolide antibiotics tylosin, desmycosin, macrocin, and lactenocin” (Eli Lilly and Company, priority 1982, dated 1984):
Converted amounts (≈) assume the structure as drawn. “And” between values parts separate entries of the source, which are not always exact repeats. Identical values can stand only once. Like-named read-outs stand apart in the source and are kept apart here.

Tests used:
in vivo = settings: dog, po, 15 mg/kg
Pasteurella multocida [1] = test: Subcutaneous treatment of Pasteurella multocida-infected chicks; assay type: in vivo, one-day-old chicks; settings: 30 mg/kg × 2, 1 and 4 hours post-challenge
Summary of the method: (§1)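 One-day-old chicks challenged subcutaneously with 0.1 ml of a 10^-4 dilution of a 20-hour tryptose broth culture of avian P. multocida. Compounds given by subcutaneous injection at 30 mg/kg 1 and 4 hours post-challenge, or by oral gavage 1 and 5 hours post-challenge.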

Pasteurella multocida [2] = test: Oral (gavage) treatment of Pasteurella multocida-infected chicks; assay type: in vivo, one-day-old chicks
Summary of the method: as §1

[3] = system: Streptococcus pyogenes C203; test: MIC, standard agar-dilution assay, Streptococcus pyogenes C203; assay type: cell-based
[4] = system: Haemophilus influenzae Holt; test: MIC, standard agar-dilution assay, Haemophilus influenzae Holt; assay type: cell-based
[5] = system: Streptococcus pyogenes C203; test: In vivo protection of mice experimentally infected with S. pyogenes C203; settings: mice, doses given 1 and 4 hours post-infection; for ED50: Streptococcus pyogenes
Description: The C-20 modified derivatives of this invention have shown in vivo antimicrobial activity against experimentally-induced infections in laboratory animals. When two doses of test compound were administered to mice experimentally infected with S. pyogenes C203, the activity observed was measured as an ED50 value [effective dose in mg/kg to protect 50% of the test animals: see Warren Wick, et al., J. Bacteriol. 81, 233-235 (1961)].

Mycoplasma hyopneumoniae = test: MIC, broth-dilution microtiter test, Mycoplasma hyopneumoniae; assay type: cell-based; settings: Mycoplasma hyopneumoniae, broth-dilution microtiter
Description: (§2) The MIC's in Table X were obtained using conventional broth-dilution microtiter tests.

Mycoplasma synoviae = test: MIC, broth-dilution microtiter test, Mycoplasma synoviae; assay type: cell-based
Description: as §2

[6] = system: Pasteurella multocida 60A; test: MIC, broth-dilution microtiter test, Pasteurella multocida 60A; assay type: cell-based; settings: Pasteurella multocida 60A, avian isolate, broth-dilution microtiter
Description: as §2

[7] = system: Streptococcus pneumoniae Park I; test: microbe, parasite or virus in culture; assay type: cell-based
Mycoplasma hyorhinis = test: MIC, broth-dilution microtiter test, Mycoplasma hyorhinis; assay type: cell-based
Description: as §2

[8] = system: Staphylococcus aureus X400; test: MIC, standard agar-dilution assay, Staphylococcus aureus X400; assay type: cell-based
[9] = system: Haemophilus influenzae R252; test: MIC, standard agar-dilution assay, Haemophilus influenzae R252; assay type: cell-based
[10] = system: Pasteurella multocida 17E; test: MIC, broth-dilution microtiter test, Pasteurella multocida 17E; assay type: cell-based; settings: Pasteurella multocida 17E, bovine isolate, broth-dilution microtiter
Description: as §2

[11] = system: Pasteurella hemolytica 22C; test: MIC, broth-dilution microtiter test, Pasteurella hemolytica 22C; assay type: cell-based; settings: Pasteurella hemolytica 22C, broth-dilution microtiter
Description: as §2

Streptococcus bovis 80 = test: MIC, broth-dilution microtiter test, Streptococcus bovis 80; assay type: cell-based
Description: as §2

[12] = system: Staphylococcus aureus V41; test: MIC, standard agar-dilution assay, Staphylococcus aureus V41; assay type: cell-based
Streptococcus Group 9960 = test: MIC, standard agar-dilution assay, Streptococcus Group 9960; assay type: cell-based
Mycoplasma gallisepticum [13] = test: MIC, broth-dilution microtiter test, Mycoplasma gallisepticum; assay type: cell-based
Description: as §2

[14] = system: Streptococcus Group D X66; test: MIC, standard agar-dilution assay, Streptococcus Group D X66; assay type: cell-based
[15] = system: Staphylococcus aureus S13E; test: MIC, standard agar-dilution assay, Staphylococcus aureus S13E; assay type: cell-based
[16] = system: Staphylococcus epidermidis EPI1; test: MIC, standard agar-dilution assay, Staphylococcus epidermidis EPI1; assay type: cell-based
Mycoplasma gallisepticum [17] = test: Antimycoplasmal activity in chicks infected with Mycoplasma gallisepticum; assay type: in vivo, two- to three-day-old chicks; settings: gavage five times, equivalent to 0.5 g/gal; for Number with Antibodies/Number Tested: antibodies to M. gallisepticum; for Number with Antibodies/Number Tested / Number with Air-Sac Lesions/Number Treated: 21 days post-infection
Description: In these tests infections were induced in chicks by injecting 0.2 ml of a broth culture of M. gallisepticum into the abdominal air sac of two- to three-day-old chicks. The compounds were administered by gavage five times at a dose equivalent to 0.5 g/gal (on the day of challenge once prior to and once following the challenge, two times on the next day and once on the third day). Twenty-one days post-infection, the chicks were weighed, a blood sample was taken, and the chicks were sacrificed. The presence or absence of air-sac lesions was recorded.

[18] = system: Staphylococcus epidermidis EPI2; test: MIC, standard agar-dilution assay, Staphylococcus epidermidis EPI2; assay type: cell-based; settings: Staphylococcus epidermidis EPI2, agar dilution
Staphylococcus aureus = test: MIC, broth-dilution microtiter test, Staphylococcus aureus; assay type: cell-based
Description: as §2

[19] = system: Staphylococcus aureus X1.1; test: MIC, standard agar-dilution assay, Staphylococcus aureus X1.1; assay type: cell-based
[20] = Plasma level after oral administration to dogs; settings: female mongrel dogs; single 15 mg/kg oral dose

CCC1OC(=O)CC(O)C(C)C(OC2OC(C)C(O)C(N(C)C)C2O)C(CC=O)CC(C)C(=O)C=CC(C)=CC1COC1OC(C)C(O)C(OC)C1OC (centres unmarked) [desmycosin]
Cmax (in vivo): 500 ng/mL

CC[C@H]1OC(=O)[C@H](C)[C@@H](O[C@H]2C[C@@](C)(OC)[C@@H](O)[C@H](C)O2)[C@H](C)[C@@H](O[C@@H]2O[C@H](C)C[C@H](N(C)C)[C@H]2O)[C@](C)(O)C[C@@H](C)C(=O)[C@H](C)[C@@H](O)[C@]1(C)O [erythromycin]
Cmax (in vivo): 1600 ng/mL

CCC1OC(=O)CC(O)C(C)C(OC2OC(C)C(O)C(N(C)C)C2O)C(CC2Nc3ccccc3S2)CC(C)C(=O)C=CC(C)=CC1COC1OC(C)C(O)C(OC)C1OC (centres unmarked) [Compound 75]
Number of Deaths/Number Treated (Pasteurella multocida [1]): 4/10 | Number of Deaths/Number tested (Pasteurella multocida [2]; 1.0 g/gal equivalent): 6/9 | Number of Deaths/Number tested (Pasteurella multocida [2]; 2.0 g/gal equivalent): 3/9 and 4/10 | MIC ([3]; Streptococcus pyogenes, C203): 0.5 µg/mL (≈ 0.569 µM) | MIC ([4]; Haemophilus influenzae): 16 µg/mL (≈ 18.2 µM) | ED50 ([5]; C203, sc, subcutaneous, read-out: ED50, Subcutaneous): 1.7 mg/kg | ED50 ([5]; C203, oral, read-out: ED50, Oral): 30 mg/kg | MIC (Mycoplasma hyopneumoniae; Mesomycoplasma hyopneumoniae, read-out: MIC): 0.19 µg/mL (≈ 0.216 µM) | MIC (Mycoplasma synoviae; Mycoplasmopsis synoviae): 1.56 µg/mL (≈ 1.77 µM) | MIC ([6]; read-out: MIC): 25 µg/mL (≈ 28.4 µM) | MIC ([7]; Streptococcus pneumoniae): 0.25 µg/mL (≈ 0.284 µM) | MIC (Mycoplasma hyorhinis; Mycoplasma): 50 µg/mL (≈ 56.9 µM) | MIC ([8]; Staphylococcus aureus, X400): 0.5 µg/mL (≈ 0.569 µM) | MIC ([9]; Haemophilus influenzae, R252): 16 µg/mL (≈ 18.2 µM) | MIC ([10]; read-out: MIC): 25 µg/mL (≈ 28.4 µM) | MIC ([11]; read-out: MIC): 25 µg/mL (≈ 28.4 µM) | MIC (Streptococcus bovis 80; Streptococcus equinus, 80): 3.12 µg/mL (≈ 3.55 µM) | MIC ([12]; Staphylococcus aureus, V41): 0.25 µg/mL (≈ 0.284 µM) | MIC (Streptococcus Group 9960; GROUP9960): 2 µg/mL (≈ 2.27 µM) | MIC (Mycoplasma gallisepticum [13]; Mycoplasmoides gallisepticum): 1.56 µg/mL (≈ 1.77 µM) | MIC [14]: 2 µg/mL (≈ 2.27 µM) | MIC ([15]; Staphylococcus aureus, S13E): 0.25 µg/mL (≈ 0.284 µM) | MIC ([16]; Staphylococcus epidermidis, EPI1): 0.25 µg/mL (≈ 0.284 µM) | Number with Antibodies/Number Tested (Mycoplasma gallisepticum [17]): 9/9 | Mortality (Mycoplasma gallisepticum [17]): 1/10 | Number with Air-Sac Lesions/Number Treated (Mycoplasma gallisepticum [17]): 3/10 | MIC ([18]; read-out: MIC): 0.12 µg/mL (≈ 0.136 µM) | MIC (Staphylococcus aureus): 0.78 µg/mL (≈ 0.887 µM) | MIC ([19]; Staphylococcus aureus, X1.1): 0.25 µg/mL (≈ 0.284 µM)

CC[C@H]1OC(=O)C[C@@H](O)[C@H](C)[C@@H](O[C@@H]2O[C@H](C)[C@H](O)[C@H](N(C)C)[C@H]2O)[C@@H](CCOc2ccccc2)C[C@@H](C)C(=O)/C=C/C(C)=C/[C@@H]1COC1O[C@H](C)[C@@H](O)[C@@H](OC)[C@H]1OC (some centres unmarked) [Compound 33, 20-DH-20-O-Phenyldesmycosin]
Number of Deaths/Number Treated (Pasteurella multocida [1]): 10/10 | Number of Deaths/Number tested (Pasteurella multocida [2]; 1.0 g/gal equivalent): 9/9 | Number of Deaths/Number tested (Pasteurella multocida [2]; 2.0 g/gal equivalent): 3/9 | Number of Deaths/Number tested (Pasteurella multocida [2]; 2.0 g/gal equivalent, 13/20 infected nonmedicated chicks died in this test): 7/10 | MIC ([3]; Streptococcus pyogenes C203, agar dilution): 2 µg/mL (≈ 2.35 µM) | MIC ([4]; Haemophilus influenzae Holt, ampicillin-sensitive strain, agar dilution): 32 µg/mL (≈ 37.6 µM) | ED50, Oral ([5]; oral): 9 mg/kg × 2 | ED50, Subcutaneous ([5]; subcutaneous): 1.5 mg/kg × 2 | MIC (Mycoplasma hyopneumoniae): 25 µg/mL (≈ 29.4 µM) | MIC (Mycoplasma synoviae; Mycoplasma synoviae, broth-dilution microtiter): 1.56 µg/mL (≈ 1.84 µM) | MIC [6]: 12.5 µg/mL (≈ 14.7 µM) | MIC ([7]; Streptococcus pneumoniae Park I, agar dilution): 2 µg/mL (≈ 2.35 µM) | MIC (Mycoplasma hyorhinis; Mycoplasma hyorhinis, broth-dilution microtiter): 25 µg/mL (≈ 29.4 µM) | MIC ([8]; Staphylococcus aureus X400, methicillin-resistant strain, agar dilution): 0.25 µg/mL (≈ 0.294 µM) | MIC ([9]; Haemophilus influenzae R252, ampicillin-resistant strain, agar dilution): 32 µg/mL (≈ 37.6 µM) | MIC [10]: 12.5 µg/mL (≈ 14.7 µM) | MIC [11]: 25 µg/mL (≈ 29.4 µM) | MIC (Streptococcus bovis 80; Streptococcus bovis 80, broth-dilution microtiter): 6.25 µg/mL (≈ 7.35 µM) | MIC ([12]; Staphylococcus aureus V41, penicillin-resistant strain, agar dilution): 0.25 µg/mL (≈ 0.294 µM) | MIC (Streptococcus Group 9960; Streptococcus Group 9960, agar dilution): 16 µg/mL (≈ 18.8 µM) | MIC (Mycoplasma gallisepticum [13]; Mycoplasma gallisepticum, broth-dilution microtiter): 0.39 µg/mL (≈ 0.459 µM) | MIC ([14]; Streptococcus Group D X66, agar dilution): 8 µg/mL (≈ 9.41 µM) | MIC ([15]; Staphylococcus aureus S13E, agar dilution): 0.25 µg/mL (≈ 0.294 µM) | MIC ([16]; Staphylococcus epidermidis EPI1, agar dilution): 0.25 µg/mL (≈ 0.294 µM) | Number with Antibodies/Number Tested (Mycoplasma gallisepticum [17]): 10/10 | Mortality (Mycoplasma gallisepticum [17]): 0/10 | Number with Air-Sac Lesions/Number Treated (Mycoplasma gallisepticum [17]): 2/10 | MIC [18]: 0.12 µg/mL (≈ 0.141 µM) | MIC (Staphylococcus aureus; broth-dilution microtiter): 0.39 µg/mL (≈ 0.459 µM) | peak plasma level [20]: 2.1 µg/mL | MIC ([19]; Staphylococcus aureus X1.1, agar dilution): 0.25 µg/mL (≈ 0.294 µM)
